In one experiment the test system is BMP-2 signaling. As to the kind of experiment: BMP-2 signaling of MSCs after burn injury, burn mouse model. The experiment is classed as in vivo. As to conditions: apyrase at the burn site. The text has this:
(§1) At the cellular level, research has shown that aberrant expression of BMPs in adipose-derived MSCs near the wound site stimulates osteogenic differentiation of multipotent cells. […] Alizarin red is used in to determine, quantitatively by colorimetry, the presence of calcific deposition by cells of an osteogenic lineage. As such, it is a marker of matrix mineralization, a crucial step towards the formation of calcified extracellular matrix associated with true bone. Thus, alizarin red staining indicates differentiation of cells to bone lineages.
(§2) Consequently, it is contemplated that decreasing inflammation at the burn site with apyrase—thus decreasing ATP concentrations, which leads to decreased MSC BMP-2 signaling and decreased osteogenic differentiation—alleviates heterotopic ossification at wound sites.

In the next experiment the test system is bacterial culture. As to the kind of experiment: Growth of a bacterial culture (optical density at 600 nm) with apyrase. As to conditions: presence vs absence of apyrase over 15 to 20 hours. The class given is cell-based.
A further experiment concerns A. baumannii ATCC DMC1. Kind of experiment: Mouse burn wound infection model, treatment 24 hours after inoculation. As to conditions: treated 24 hours after inoculation, sampled 48 hours after the burn.
The nature of experiment [1]: Killing efficiency of antibacterial agents with apyrase (summary of the examples). The class given is cell-based. As to conditions: in some instances. How it is done:
Embodiments of the technology relate to the surprising discovery that apyrase and antimicrobial agents act together synergistically. […] As such, the technology provides therapies in which antimicrobial agents are administered in lower doses (e.g., 0.01%, 0.1%, 1%, 5%, 10%, 20%, 50%, 75%, 90%, etc. of the standard recommended dosage) than in conventional technologies. Importantly, this reduces toxic side effects, if present, of antimicrobial agents in subjects and helps to prevent drug resistance of microbes. In addition, the technology provided herein comprising combined use of apyrase and antimicrobial agents provides the only treatment to kill some multiply-resistant strains of pathogens.

The test system of a further experiment is MSCs. Kind of experiment: Osteogenic differentiation of MSCs after burn injury (alizarin red), burn mouse model. The class given is in vivo.
Text: as §1, §2

Experiment [2] deals with Burkholderia cepacia GIIIa AU0019. As to the kind of experiment: Viable cell count (CFU) with colistin and apyrase. The class given is cell-based. As to conditions: apyrase 2 U/ml; colistin at less than 10 μg/ml.
Experiment [3] concerns A. baumannii strain AC121. Kind of experiment: Viable cell count (CFU) with colistin and apyrase. As to conditions: apyrase 2 U/ml; colistin at less than 20 μg/ml; colistin-resistant strain.
Method: Approximately 10^5 to 10^6 CFU/ml of the colistin-resistant A. baumannii strain AC121 was grown in the presence of combinations of 0 and 2 U/ml of apyrase and approximately 0 to 20 μg/ml of colistin. After incubation, the numbers of viable cells were determined by counting the colony forming units (CFU) on the plate (data provided as CFU/ml).
Experiment [4] concerns A. baumannii DMC1. Kind of experiment: Mouse wound model, viable bacteria at burn sites 24 hours after burn. As to conditions: C57BL/6 mice, colistin 4 μg/ml.
Method: In addition, experiments were performed to test the synergistic killing effects of colistin and apyrase in vivo. An established mouse wound model was used for this test.
Female pathogen-free C57BL/6 mice (Harlan, Indianapolis, Ind.), 12 weeks old, weighing ˜20-23 grams were used in all experiments. The skin over the lumbrosacral and back region was clipped using a 35-W model 5-55 E electrical clipper (Oyster-Golden A-S, Head no. 80, blade size 40) by using the method described by Ipaktchi et al. with slight modification. Two hundred microliters of a 0.9% saline suspension of A. baumannii DMC1 (1×10^6 cells/ml), which is a highly colistin resistant clinical strain, was used for wound infection experiments. Viable bacterial numbers were determined 24 hours after burn. The Student t-test was used for statistical analysis.
Experiments were carried out in four groups: (1) a control group (n=6), which contained neither apyrase nor colistin; (2) apyrase group (n=9), which contained apyrase (1 U/ml); (3) colistin group (n=9), which contained colistin (4 μg/ml); and (4) apyrase and colistin group (n=9), which was treated with the combination of apyrase (1 U/ml) and colistin (4 μg/ml). The treatment was applied immediately after inoculation. After 24 hours, the mice were given lethal IP injections of pentobarbital (150 mg/kg) and skin samples were collected using a scalpel and scissors.
The test system of experiment [5] is P. aeruginosa strain AU1292. As to the kind of experiment: Viable cell count (CFU) with colistin and apyrase. To be noted: apyrase 2 U/ml; colistin at less than 20 μg/ml.
Method: P. aeruginosa strain AU1292 was grown in the presence of combinations of 0 and 2 U/ml of apyrase and approximately 0 to 20 μg/ml of colistin. After incubation, the numbers of viable cells were determined by counting the colony forming units (CFU) on the plate (data provided as CFU/ml).
Experiment [6] deals with Burkholderia cepacia GIIIb AU0055. As to the kind of experiment: Viable cell count (CFU) with colistin and apyrase. As to conditions: apyrase 2 U/ml; colistin at less than 10 μg/ml.
Method: Burkholderia cepacia GIIIb AU0055 was grown in the presence of combinations of 0 and 2 U/ml of apyrase and approximately 0 to 20 μg/ml of colistin. After incubation, the numbers of viable cells were determined by counting the colony forming units (CFU) on the plate (data provided as CFU/ml).
The test system of experiment [7] is Burkholderia cepacia AU1114. As to the kind of experiment: Viable cell count (CFU) with colistin and apyrase. As to conditions: apyrase 2 U/ml; colistin at less than 20 μg/ml.
Method: Burkholderia cepacia AU1114 was grown in the presence of combinations of 0 and 2 U/ml of apyrase and approximately 0 to 20 μg/ml of colistin. After incubation, the numbers of viable cells were determined by counting the colony forming units (CFU) on the plate (data provided as CFU/ml).
Experiment [8] concerns Burkholderia dolosa AU0589. As to the kind of experiment: Viable cell count (CFU) with colistin and apyrase. To be noted: apyrase 2 U/ml; colistin at less than 20 μg/ml.
Method: Burkholderia dolosa AU0589 was grown in the presence of combinations of 0 and 2 U/ml of apyrase and approximately 0 to 20 μg/ml of colistin. After incubation, the numbers of viable cells were determined by counting the colony forming units (CFU) on the plate (data provided as CFU/ml).
Experiment [9] has as its system Burkholderia vietnamiensis AU10214. Kind of experiment: Viable cell count (CFU) with colistin and apyrase. To be noted: apyrase 2 U/ml; colistin at less than 20 μg/ml.
Method: Burkholderia vietnamiensis AU10214 was grown in the presence of combinations of 0 and 2 U/ml of apyrase and approximately 0 to 20 μg/ml of colistin. After incubation, the numbers of viable cells were determined by counting the colony forming units (CFU) on the plate (data provided as CFU/ml).
The subject of experiment [10] is P. aeruginosa strain AU7443, mucoid. As to the kind of experiment: Viable cell count (CFU) with colistin and apyrase. To be noted: apyrase 2 U/ml; colistin at less than 20 μg/ml.
Method: After incubation, the numbers of viable cells were determined by counting the colony forming units (CFU) on the plate (data provided as CFU/ml).
The subject of experiment [11] is Burkholderia ambifaria AU5203. Kind of experiment: Viable cell count (CFU) with colistin and apyrase. As to conditions: apyrase 2 U/ml; colistin at less than 20 μg/ml.
A further experiment deals with A. baumannii strain DMC1. As to the kind of experiment: Viable cell count (CFU) with colistin and apyrase. As to conditions: apyrase 1 and 2 U/ml; colistin 4 to 32 μg/ml; colistin alone at the same concentrations.
In the next experiment the test system is E. coli K-12. As to the kind of experiment: MIC from dose-kill curves, colistin alone or with apyrase. The experiment is classed as cell-based. To be noted: 4 hours at 37° C., apyrase 2 U/ml in the combination. The method, then: (§3) Data were collected from systematic tests to investigate bacterial killing with colistin and apyrase combinations against ESKAPE bacteria in vitro. […] Dose-kill curves for 22 strains (colistin sensitive or resistant ˜10^6 CFU/ml) were generated after exposure to colistin at different concentrations by itself or in combination with apyrase (2 U/ml) for 4 hours at 37° C. Data were obtained from three independent experiments. […] The MIC of colistin and apyrase combinations was generally 2- to 8-fold lower in comparison to the MIC for colistin alone (FIG. 31 and Table 2). For Gram-positive strains, the MICs results obtained with colistin alone and with the combination of colistin and apyrase were very similar.

In experiment [12] the test system is A. baumannii DMC1. Described as above. The experiment is classed as cell-based. To be noted: 4 hours at 37° C., apyrase 2 U/ml in the combination. How it is done:
as §3

For the next experiment, the system named is P. aeruginosa AU1292. The description is as above. The experiment is classed as cell-based. As to conditions: 4 hours at 37° C., apyrase 2 U/ml in the combination. How it is done:
as §3

The test system of a further experiment is B. multivorans AU0801. Described as above. The class given is cell-based. To be noted: 4 hours at 37° C., apyrase 2 U/ml in the combination. How it is done:
as §3

The next experiment deals with A. baumannii AC121. Described as above. The class given is cell-based. To be noted: 4 hours at 37° C., apyrase 2 U/ml in the combination. The method, then: as §3
The next experiment has as its system P. aeruginosa ATCC 27853. The description is as above. The experiment is classed as cell-based. To be noted: 4 hours at 37° C., apyrase 2 U/ml in the combination. How it is done:
as §3

A further experiment has as its system S. aureus ATCC 25923. Described as above. The experiment is classed as cell-based. To be noted: 4 hours at 37° C., apyrase 2 U/ml in the combination. How it is done: as §3
In another experiment the test system is A. baumannii VBA9. The description is as above. The class given is cell-based. To be noted: 4 hours at 37° C., apyrase 2 U/ml in the combination. How it is done:
as §3

Another experiment relates to A. baumannii ATCC 19606. Described as above. The class given is cell-based. To be noted: 4 hours at 37° C., apyrase 2 U/ml in the combination. How it is done:
as §3

The next experiment has as its system K. pneumonia AD. Described as above. As to conditions: 4 hours at 37° C., apyrase 2 U/ml in the combination. The class given is cell-based. The method, then:
as §3

A further experiment has as its system P. aeruginosa AU7443. The description is as above. To be noted: 4 hours at 37° C., apyrase 2 U/ml in the combination. The class given is cell-based. The method, then:
as §3

For another experiment, the system named is A. baumannii AC285. The experiment is described as above. The class given is cell-based. To be noted: 4 hours at 37° C., apyrase 2 U/ml in the combination. The method, then:
as §3

For a further experiment, the system named is P. aeruginosa PAO300. The experiment is described as above. To be noted: 4 hours at 37° C., apyrase 2 U/ml in the combination. The experiment is classed as cell-based. How it is done: as §3
Experiment [13] deals with P. aeruginosa strain AU8104. As to the kind of experiment: Viable cell count (CFU) with colistin and apyrase. As to conditions: apyrase 2 U/ml; colistin at less than 10 μg/ml.
Method: P. aeruginosa strain AU8104 was grown in the presence of combinations of 0 and 2 U/ml of apyrase and approximately 0 to 20 μg/ml of colistin. After incubation, the numbers of viable cells were determined by counting the colony forming units (CFU) on the plate (data provided as CFU/ml).
The subject of experiment [14] is A. baumannii strain ATCC 19606. As to the kind of experiment: Viable cell count (CFU) with colistin and apyrase. To be noted: apyrase 1 and 2 U/ml; colistin 0.25 to 2 μg/ml; colistin alone at the same concentrations.
Method: Approximately 10^6 CFU/ml of A. baumannii strain ATCC 19606 was grown on solid medium culture plates in the presence of combinations of 0, 1, and 2 U/ml of apyrase and 0, 0.25, 0.5, 1, and 2 μg/ml of colistin. After incubation, the numbers of viable cells were determined by counting the colony forming units (CFU) on the plate (data provided as CFU/ml). […] In these Examples, the colistin is colistin sulfate salt, catalog number C4461 from Sigma-Aldrich (St. Louis, Mo.) and the apyrase is catalog number M0393L from New England BioLabs Inc. (Ipswich, Mass.).
A further experiment relates to P. aeruginosa AU0584. Kind of experiment: Viable cell count (CFU) with colistin and apyrase. To be noted: apyrase 2 U/ml; colistin at less than 10 μg/ml.
Experiment [15] deals with Burkholderia multivorans AU0801. Kind of experiment: Viable cell count (CFU) with colistin and apyrase. To be noted: apyrase 2 U/ml; colistin at less than 10 μg/ml.
Method: Burkholderia multivorans AU0801 was grown in the presence of combinations of 0 and 2 U/ml of apyrase and approximately 0 to 20 μg/ml of colistin. After incubation, the numbers of viable cells were determined by counting the colony forming units (CFU) on the plate (data provided as CFU/ml).
The subject of experiment [16] is Burkholderia cepacia GIIIb AU0062. Kind of experiment: Viable cell count (CFU) with colistin and apyrase. To be noted: apyrase 2 U/ml; colistin at less than 20 μg/ml.
Method: Burkholderia cepacia GIIIb AU0062 was grown in the presence of combinations of 0 and 2 U/ml of apyrase and approximately 0 to 20 μg/ml of colistin. After incubation, the numbers of viable cells were determined by counting the colony forming units (CFU) on the plate (data provided as CFU/ml).

Where a SMILES comes first, the peptide text is derived from it. Bridges are numbered along the chain shown (N, C = ends). [ ]: non-standard residue; d: D form. The star is where a group is joined. Heptanoyl(5-Me) = CCC(C)CCCC(=O)*; Dab = NCC[C@H](N)C(=O)O

In general, MIC refers to the lowest concentration that inhibits growth of the organism.

Method for A. baumannii ATCC DMC1: After a burn, A. baumannii ATCC DMC1 was inoculated on skin. After 24 hours, the wounds were treated with apyrase alone, colistin alone, or apyrase and colistin in combination. Skin samples were collected after another 24 hours and the CFU/g skin of A. baumannii ATCC DMC1 was determined.
Method for A. baumannii strain DMC1: Approximately 10^6 CFU/ml of A. baumannii strain DMC1 was grown on solid medium culture plates in the presence of combinations of 0, 1, and 2 U/ml of apyrase and 0, 4, 8, 16, and 32 μg/ml of colistin. After incubation, the numbers of viable cells were determined by counting the colony forming units (CFU) on the plate (data provided as CFU/ml).
Method for P. aeruginosa AU0584: P. aeruginosa AU0584 was grown in the presence of combinations of 0 and 2 U/ml of apyrase and approximately 0 to 20 μg/ml of colistin. After incubation, the numbers of viable cells were determined by counting the colony forming units (CFU) on the plate (data provided as CFU/ml).

Take apyrase: the “level of BMP-2 signaling of the MSCs” value in the experiment with BMP-2 signaling is listed as “decreased”. Moreover, in the experiment with bacterial culture, the “growth of a bacterial culture (optical density at 600 nm)” value is recorded as “does not affect bacterial growth”. In the experiment with A. baumannii ATCC DMC1, the “A. baumannii detected on skin” value is “approximately 10^8 CFU/g of skin”. Besides, the “increase of the killing efficiency of antibacterial agents” value in experiment [1] worked out at 1000 times. In addition, in the experiment with MSCs (after burn injury and apyrase treatment), the “osteogenic differentiation of MSCs (alizarin red)” value is on record as “significant decrease”. Besides, the “osteogenic capacity of the MSCs” value with MSCs (apyrase at the burn site) is recorded as “decreased”.

In the case of `CCC(C)CCCC(=O)N[C@@H](CCN)C(=O)N[C@H](C(=O)N[C@@H](CCN)C(=O)N[C@H]1CCNC(=O)[C@H]([C@@H](C)O)NC(=O)[C@H](CCN)NC(=O)[C@H](CCN)NC(=O)[C@H](CC(C)C)NC(=O)[C@@H](CC(C)C)NC(=O)[C@H](CCN)NC1=O)[C@@H](C)O` (stereo partly drawn) [Colistin, colistin] ({Heptanoyl(5-Me)}-[Dab]T[Dab][Dab][Dab][dL]L[Dab][Dab]T; lactam 4-C), the viable cells detected in experiment [2] is reported as 10^5 to 10^6 CFU/ml; in [3], 10^7 to 10^8 CFU/ml; in [5], 10^4 to 10^5 CFU/ml; in experiment [6] it was 10^4 to 10^5 CFU/ml; in experiment [7], 10^5 to 10^6 CFU/ml; in experiment [8], 10^6 to 10^7 CFU/ml. In addition, the viable cells detected in experiment [9] is 10^5 to 10^6 CFU/ml; in experiment [10] it was 10^4 to 10^5 CFU/ml; in experiment [11], 10^5 to 10^6 CFU/ml; in experiment [13] it was 10^5 to 10^6 CFU/ml; in the experiment with P. aeruginosa AU0584 it was 10^3 to 10^4 CFU/ml; in experiment [15], 10^5 to 10^6 CFU/ml. For the same molecule, the viable cells detected in experiment [16] is 10^4 to 10^5 CFU/ml. Further, in the experiment with A. baumannii DMC1 [4], the “viable bacteria number recovered from burn sites, compared with the control group” value was “no significant difference”. In the experiment with A. baumannii ATCC DMC1, the “A. baumannii detected on skin” value is given as “approximately 10^8 CFU/g of skin”. Moreover, the values for the viable cell count entry (with A. baumannii strain DMC1; in [14]) were “approximately 10^7 CFU/ml” and “approximately 10^5 CFU/ml”, respectively. The minimum inhibitory concentration (MIC) in the experiment on E. coli K-12 is 2 µM; with A. baumannii DMC1 [12] it was more than 32 µM; in the experiment on P. aeruginosa AU1292, more than 16 µM; in the experiment with B. multivorans AU0801, more than 16 µM; in the experiment on A. baumannii AC121 it was more than 32 µM; with P. aeruginosa ATCC 27853 it was 1 µM. In addition, the minimal inhibitory concentration (MIC) in the experiment on S. aureus ATCC 25923 is more than 32 µM; in the experiment with A. baumannii VBA9, more than 32 µM; in the experiment on A. baumannii ATCC 19606 it was 4 µM; in the experiment with K. pneumonia AD, 16 µM; with P. aeruginosa AU7443, more than 16 µM; in the experiment on A. baumannii AC285, more than 32 µM. Moreover, in the experiment on P. aeruginosa PAO300, the MIC is 2 µM.

(Values after patent US20150273025A1, “APYRASE TREATMENTS” (THE REGENTS OF THE UNIVERSITY OF MICHIGAN, priority 2012, published 2015).)
